“Also recorded” adds a separate entry of the source.
How the values were obtained:
[1] = system: G. duodenalis trophozoites; test: Morphological evaluation by light microscopy (Diff-Quik), G. duodenalis; type: cell-based, Giardia duodenalis; details: germacrone 100 µg/mL
Method: Each well contained 435 μL of culture medium and 15 μL of the test or control compounds at the above-mentioned concentrations. The chamber included: two wells for growth control (0.5 h, 48 h), two for germacrone (0.5 h, 48 h), and two for metronidazole (0.5 h, 48 h). Incubation was performed at 37 °C. At each time point, the medium was removed, wells were dried, fixed, and stained with Diff-Quik. Morphological changes were analyzed using light microscopy. Experiments were performed as independent biological replicates on different plates, and one Diff-Quik stained smear was obtained per condition and time point per biological replicate. For morphometric analysis, a total of 30 trophozoites per condition and time point were measured across the independent biological replicates and were selected by consecutive sampling during a predefined serpentine (zig-zag) scan across the preparation. Up to two eligible trophozoites per field (intact, well-focused and non-overlapping) were measured in sequential fields until n = 30 was reached, avoiding subjective selection of “representative” cells. Overlapping, partially visible, out-of-focus, edge-of-field, or debris-obscured trophozoites were excluded a priori. Trophozoites were photographed using a researcher's mobile phone mounted to the microscope ocular. Calibration was performed at the same magnification using a stage micrometre and applied in ImageJ v. 1.54d. One Diff-Quik stained smear was obtained per condition/time point per biological replicate Cell length, cell width, cell surface, nuclear length, nuclear width, axoneme (only Giardia), and length of axostyle (only T. gallinae) were measured with ImageJ software, and the data were recorded in an Excel database for statistical analysis. The Shapiro-Wilk test was used to assess the normality of the morphological variables. When data followed a normal distribution, Student's t-test was applied; otherwise, non-parametric tests, such as the Mann-Whitney U test, was used. Values of p < 0.05 were considered significant. For the morphological analysis, the mean, standard deviation, median, and interquartile range were calculated using SPSS version 20 (IBM Corp., Armonk, NY, USA).

T. gallinae trophozoites = test: Morphological evaluation by light microscopy (Diff-Quik), T. gallinae; type: cell-based, Trichomonas gallinae; details: germacrone 100 µg/mL
Excerpt: At each time point, quadruplicates were assigned per condition: growth control, germacrone, and the corresponding positive control (metronidazole or amphotericin B). For microscopy, quadruplicate wells corresponding to the same condition/time point were pooled prior to centrifugation to obtain sufficient biomass and a representative pellet for smear preparation. Pooled samples per condition/time point were centrifuged, resuspended in FBS and spread onto microscope slides. Once dried, samples were fixed and stained with Diff-Quik (Medion Diagnostic AG, […], Switzerland) following the manufacturer's instructions. Additionally, three wells per condition (triplicates) were used for the MTT assay, with absorbance measured by spectrophotometry after 48 h. Morphological changes were analyzed using light microscopy. Experiments were performed as independent biological replicates on different plates, and one Diff-Quik stained smear was obtained per condition and time point per biological replicate. For morphometric analysis, a total of 30 trophozoites per condition and time point were measured across the independent biological replicates and were selected by consecutive sampling during a predefined serpentine (zig-zag) scan across the preparation. Up to two eligible trophozoites per field (intact, well-focused and non-overlapping) were measured in sequential fields until n = 30 was reached, avoiding subjective selection of “representative” cells. Overlapping, partially visible, out-of-focus, edge-of-field, or debris-obscured trophozoites were excluded a priori. Trophozoites were photographed using a researcher's mobile phone mounted to the microscope ocular. Calibration was performed at the same magnification using a stage micrometre and applied in ImageJ v. 1.54d. One Diff-Quik stained smear was obtained per condition/time point per biological replicate Cell length, cell width, cell surface, nuclear length, nuclear width, axoneme (only Giardia), and length of axostyle (only T. gallinae) were measured with ImageJ software, and the data were recorded in an Excel database for statistical analysis. The Shapiro-Wilk test was used to assess the normality of the morphological variables. When data followed a normal distribution, Student's t-test was applied; otherwise, non-parametric tests, such as the Mann-Whitney U test, was used. Values of p < 0.05 were considered significant. For the morphological analysis, the mean, standard deviation, median, and interquartile range were calculated using SPSS version 20 (IBM Corp., Armonk, NY, USA).

[2] = metronidazole 100 µg/mL, 0.5 and 48 h, control DMSO 1%
[3] = metronidazole 10 µg/mL, 0.5 and 48 h, control DMSO 1%

Question: How did the “axoneme length vs control” value [1, 2] turn out when `CC(C)=C1C/C=C(\C)CC/C=C(\C)CC1=O` [Compound 2, germacrone] was run?
Answer: decreased at 0.5 h; also recorded: at 48 h, germacrone caused an increase

Question: What about the “cell length vs control” value [1, 2] of the same compound?
Answer: significant reductions at 30 min

Question: What about the “cell width vs control” value [1, 2] of the same compound?
Answer: no differences were observed at 0.5 h with germacrone, but after 48 h, a significant increase

Question: And the “nuclear length (left and right) vs control” value [1, 2]?
Answer: decreased significantly with germacrone at 0.5 h and later increased after 48 h

Question: And the “nuclear width vs control” value [1, 2]?
Answer: reduction at 0.5 h, followed by an increase at 48 h

Question: And the “morphological changes (light microscopy)” value ([1]; 48 h of exposure, Diff-Quik)?
Answer: less defined cytoplasm and nucleus of the cells

Question: What about the “axostyle length vs control” value (T. gallinae trophozoites; [3]) of the same compound?
Answer: decreased at 0.5 h; also recorded: after 48 h, it increased

Question: What about the “cell length vs control” value (T. gallinae trophozoites; [3]) of the same compound?
Answer: increase after 48 h

Question: And the “cell surface area vs control” value (T. gallinae trophozoites; [3])?
Answer: decreased transiently at 0.5 h but increased at 48 h

Question: And the “cell width vs control” value (T. gallinae trophozoites; [3])?
Answer: significant decrease exclusively in germacrone-treated parasites compared to the control at 0.5 h

Question: And the “nuclear length vs control” value (T. gallinae trophozoites; [3])?
Answer: increased upon germacrone exposure

Question: And the “nuclear width vs control” value (T. gallinae trophozoites; [3])?
Answer: diminished at 0.5 h; also recorded: By 48 h, nuclear width increased

Question: What about the “morphological changes (light microscopy)” value (T. gallinae trophozoites; 48 h of exposure, Diff-Quik) of the same compound?
Answer: elongation of the cytoplasm and the nucleus

Reference: article PMC12841663, “Antiprotozoal Potential of Cultivated Geranium macrorrhizum Against Giardia duodenalis, Trichomonas gallinae and Leishmania infantum” (International Journal of Molecular Sciences, 2026)
